pEC50: −log10 of the molar value. Read-outs that look alike come from different tables or passages of the source.
Tests used:
[1] = in vitro; type: cell-based; conditions: dog
Protocol: Method for cytotoxicity study: The cytotoxicity assay and antiviral activity assay of the compounds were performed in parallel, except for the absence of virus, other experimental conditions were consistent with the antiviral activity assay. After 5 days of culture, the cell viability was measured using the cell viability detection kit CCK8. Raw data were used for calculating compound cytotoxicity (CC50) (see Table 1 for results).

[2] = system: influenza virus A/PR/8/34 (H1N1); test: organism not typed; type: cell-based; conditions: 120 h
[3] = system: influenza A virus (H1N1, A/WSN/33); test: Efficacy on mice, IAV mouse infection model; type: in vivo, Female BALB/c mice; conditions: 15 mpk orally twice a day; for Body weight change / Survival rate: infected mice; for Body weight change: during the experiment; for Survival rate: to the predetermined experimental end point; for Mean difference of virus titer compared with the solvent group / Influenza Virus Titer in lung tissue: mice, 5th day after infection
Description: Female BALB/c mice were inoculated with influenza A virus (H1N1, A/WSN/33) by intranasal administration to establish an IAV mouse infection model. The vehicle, Compound III-2 (15 mpk) or oseltamivir phosphate (15 mpk) were orally administered twice a day. Animal weight and survival status were monitored daily during the test, and on the 5th day, some animals were killed to take lung tissue for virus titer detection, and the remaining mice were used for survival rate monitoring. The in vivo anti-influenza virus efficacy of the test compound was determined by virus titer in lung tissue, mouse body weight change and survival rate.

[4] = in vivo; set-up: species or system SD rats; conditions: SD, rat, iv, 0.25 mg/kg
Protocol: Intravenous injection: about 2 mg of Compound 11-5, Compound 11-6 and Compound 1-77 were accurately weighed out and added with appropriate amount of DMA, followed by vortex to a clean solution. An appropriate volume of 30% Solutol HS-15 aqueous solution and saline were added and vortexed, so that DMA: 30% Solutol HS-15: saline was 20:20:60 (v/v/v). The solution was filtered to give a 0.05 mg·mL^−1 pharmaceutical preparation. SD rats were given a single injection of 0.25 mg·kg^−1 of Compounds 11-5, 11-6 and 1-77 intravenously. 0.20 mL of blood was collected from the jugular vein before administration and 0.083 h, 0.25 h, 0.5 h, 1 h, 2 h, 4 h, 8 h, 12 h and 24 h after administration, and placed in an EDTA-K2 anticoagulation tube. 150 μL of whole blood was accurately pipetted immediately, and added into a test tube to which 450 μL of acetonitrile has been added to precipitate proteins, and the tube was vortexed, and placed on wet ice. It was stored in a −90˜−60° C. refrigerator for biological sample analysis. The concentration of the corresponding compound in the plasma of S-D rats was determined by LC-MS/MS analysis. The corresponding pharmacokinetic parameters were calculated using a non-compartmental model in Pharsight Phoenix 7.0.

[5] = set-up: species or system SD rats; conditions: SD, rat, in vivo, po, 3 mg/kg
Protocol: Intragastric administration: about 4 mg of Compound III-2 was accurately weighed out and added with appropriate amount of PEG400, followed by vortex to a clean solution. An appropriate volume of 30% Solutol HS-15 aqueous solution and saline were added, and followed by vortex to give a pharmaceutical preparation of a concentration of 0.3 mg·mL^−1, with PEG400: 30% Solutol HS-15: saline=2:2:6 (v/v/v). SD rats were given a single oral administration of 3.0 mg·kg^−1 of Compounds III-2, and the concentration of Compound II-6 in the plasma of S-D rats was determined before administration and 0.25 h, 0.5 h, 1 h, 2 h, 4 h, 8 h, 12 h and 24 h after administration.

[6] = MDCK cells, A/PR/8/34 (H1N1), 5 days, CCK8, read-out: EC50

Compound	CC50 at 5 days [1] [nM]	pEC50 [2, 6]	further results
O=C1c2c(O)c(=O)ccn2N([C@@H]2c3ccccc3SCc3c2ccc(F)c3F)[C@@H]2CC=CCN12 [II-66]	> 1000	9.74	
CCOC(=O)C1=C[C@@H](OC(CC)CC)[C@H](NC(C)=O)[C@@H](N)C1 [Oseltamivir phosphate, oseltamivir phosphate, reference compound]			Body weight change [3]: remained stable; Survival rate [3]: 100%; Mean difference of virus titer compared with the solvent group [3]: 3.46 Log 10 (number of plaques per gram of lung tissue); Influenza Virus Titer in lung tissue ([3]; 15 mg/kg): 3.74 ± 0.5205 Log10 (plaques number/gram of; Influenza Virus Titer in lung tissue ([3]; listed as oseltamivir phosphate, 15 mg/kg): 3.74 Log10 (plaques number/gram of
O=C1c2c(O)c(=O)ccn2N([C@H]2c3ccccc3CSc3ccccc32)CN1C1CC2(CCC2)C1 [Compound I-1]	> 1000	9.30	
O=C1c2c(O)c(=O)ccn2N([C@@H]2c3ccccc3SCc3cccc(F)c32)CN1C1CC2(CCC2)C1 [Compound I-21]	> 1000	9.22	
O=C1c2c(O)c(=O)ccn2N([C@H]2c3ccc(F)cc3CSc3ccccc32)[C@@H]2COC3(CC3)CN12 [II-14]	> 1000	9.51	
O=C1c2c(O)c(=O)ccn2N([C@@H]2c3ccccc3SCc3c2ccc(F)c3F)CN1C1C2CC1C2F (stereo partly drawn) [Compound I-66]	> 1000	9.24	
COCC1CN2C(=O)c3c(O)c(=O)ccn3N([C@@H]3c4ccccc4SCc4c3ccc(F)c4F)[C@@H]2CO1 (stereo partly drawn) [II-29]	> 1000	9.24	
O=C1c2c(O)c(=O)ccn2N([C@H]2c3ccccc3CSc3ccccc32)CN1C12CC(C1)C2 [Compound I-69]	> 1000	9.46	
O=C1c2c(O)c(=O)ccn2N([C@H]2c3ccccc3CSc3ccccc32)[C@@H]2COC3(CC3)CN12 [II-2]	> 1000	9.29	
O=C1c2c(O)c(=O)ccn2N([C@@H]2c3ccccc3SCc3c2ccc(F)c3F)[C@@H]2COC3(CC3)CN12 [II-6]	> 1000	9.59	AUC(0-t) [4]: 276 ng·h/mL; Vd [4]: 3.12 L/kg; clearance [4]: 13.6 mL/min/kg; half-life [4]: 178 min
O=C1c2c(O)c(=O)ccn2N([C@@H]2c3ccccc3SCc3c(F)cccc32)[C@@H]2COC3(CC3)CN12 [II-10]	> 1000	9.62	
C=C1CCN2C(=O)c3c(O)c(=O)ccn3N([C@@H]3c4ccccc4SCc4c3ccc(F)c4F)[C@@H]2C1 [II-65]	> 1000	9.35	
O=C1c2c(O)c(=O)ccn2N([C@@H]2c3ccccc3SCc3c2ccc(F)c3F)CN1C1CC2(CCC2)C1 [Compound I-5]	> 1000	9.36	
COC(=O)OCOc1c2n(ccc1=O)N([C@@H]1c3ccccc3SCc3c1ccc(F)c3F)[C@@H]1COC3(CC3)CN1C2=O [III-2]			Body weight change [3]: remained stable; Survival rate [3]: 100%; Mean difference of virus titer compared with the solvent group [3]: 3.92 Log 10 (number of plaques per gram of lung tissue); Influenza Virus Titer in lung tissue ([3]; 15 mg/kg): 3.28 Log10 (plaques number/gram of; Influenza Virus Titer in lung tissue ([3]; listed as Compound III-2, 15 mg/kg): 3.28 ± 0.2813 Log10 (plaques number/gram of; AUC(0-t) [5]: 1377 ng·h/mL; Cmax [5]: 253 ng/mL; F [5]: 47.2%; T1/2 [5]: 3.32 h; Tmax [5]: 1.67 h
O=C1c2c(O)c(=O)ccn2N([C@@H]2c3ccccc3SCc3cccc(F)c32)[C@@H]2COC3(CC3)CN12 [II-18]	> 1000	9.55	
O=C1c2c(O)c(=O)ccn2N([C@@H]2c3ccccc3SCc3c2ccc(F)c3F)[C@@H]2COC3(COC3)CN12 [II-7]	> 1000	9.03	
O=C1c2c(O)c(=O)ccn2N([C@@H]2c3ccccc3SCc3c2ccc(F)c3F)[C@@H]2COCC3(CC3)N12 [II-5]	> 1000		AUC(0-t) [4]: 187 ng·h/mL; Vd [4]: 3.69 L/kg; clearance [4]: 20.9 mL/min/kg; half-life [4]: 149 min; pEC50 ([2]; MDCK): 9.66
O=C1c2c(O)c(=O)ccn2N([C@@H]2c3ccccc3SCc3cccc(F)c32)CN1C12CC(C1)C2 [Compound I-85]	> 1000	9.74	
O=C1c2c(O)c(=O)ccn2N([C@@H]2c3ccccc3SCc3cccc(Cl)c32)[C@@H]2COC3(CC3)CN12 [II-22]	> 1000	9.44	

Compound	CC50 at 5 days [1] [nM]	pEC50 [2, 6]	further results
O=C1c2c(O)c(=O)ccn2N([C@H]2c3ccccc3CSc3ccccc32)CN1C1CC2(COC2)C1 [Compound I-10]	> 1000	9.15	
O=C1c2c(O)c(=O)ccn2N([C@H]2c3ccc(F)cc3CSc3ccccc32)CN1C12CC(C1)C2 [Compound I-83]	> 1000	9.68	
O=C(O)[C@H]1C2CCC(CC2)[C@@H]1Nc1nc(-c2c[nH]c3ncc(F)cc23)ncc1F [VX-787, reference compound]	> 100	8.85	
O=C1c2c(O)c(=O)ccn2N([C@@H]2c3ccccc3SCc3c(F)cccc32)[C@@H]2COCC3(CC3)N12 [II-9]	> 1000		pEC50 ([2]; MDCK): 9.55
O=C1c2c(O)c(=O)ccn2N([C@@H]2c3ccccc3SCc3c2ccc(F)c3F)CN1C1CC2(CC2)C1 [Compound I-14]	> 1000	9.49	
O=C1c2c(O)c(=O)ccn2N([C@@H]2c3ccccc3SCc3c2ccc(F)c3F)CN1CCSC1CC1 [Compound I-8]	> 1000	9.12	
COCC1COC[C@@H]2N1C(=O)c1c(O)c(=O)ccn1N2[C@@H]1c2ccccc2SCc2c1ccc(F)c2F (stereo partly drawn) [II-8]	> 1000	9.33	
O=C1c2c(O)c(=O)ccn2N([C@H]2c3ccccc3CSc3ccccc32)[C@@H]2COCC3(CC3)N12 [II-1]	> 1000		pEC50 ([2]; MDCK): 9.35
O=C1c2c(O)c(=O)ccn2N([C@@H]2c3ccccc3SCc3c2ccc(F)c3F)CN1CCOC1CC1 [Compound I-7]	> 1000	9.08	
O=C1c2c(O)c(=O)ccn2N([C@@H]2c3ccccc3SCc3c2ccc(F)c3F)[C@@H]2CC(OC3CC3)CCN12 (stereo partly drawn) [II-34]	> 1000	9.41	
O=C1c2c(O)c(=O)ccn2N([C@H]2c3ccccc3CSc3ccccc32)CN1C1CC2(CC2)C1 [Compound I-9]	> 1000	9.40	
O=C1c2c(O)c(=O)ccn2N([C@@H]2c3ccccc3SCc3c2ccc(F)c3F)CN1C12CC(C1)C2 [Compound I-77]	> 1000	9.80	AUC(0-t) [4]: 307 ng·h/mL; Vd [4]: 2.77 L/kg; clearance [4]: 13 mL/min/kg; half-life [4]: 178 min
O=C1c2c(O)c(=O)ccn2N([C@@H]2c3ccccc3SCc3cccc(Cl)c32)CN1C12CC(C1)C2 [Compound I-89]	> 1000	9.77	
O=C1c2c(O)c(=O)ccn2N([C@@H]2c3ccccc3SCc3c(F)cccc32)CN1C12CC(C1)C2 [Compound I-81]	> 1000	9.72	
O=C1c2c(O)c(=O)ccn2N([C@@H]2c3ccccc3SCc3c2ccc(F)c3F)[C@@H]2C/C(=C/F)CCN12 [II-67]	> 1000	9.32	
O=C1C2N(CC3CCCN13)C(=O)c1c(O)c(=O)ccn1N2[C@@H]1c2ccccc2SCc2c1ccc(F)c2F (stereo partly drawn) [II-101]	> 1000	9.03	
O=C1c2c(O)c(=O)ccn2N([C@@H]2c3ccccc3SCc3cccc(F)c32)[C@@H]2COCC3(CC3)N12 [II-17]	> 1000		pEC50 ([2]; MDCK): 9.59
O=C1c2c(O)c(=O)ccn2N([C@@H]2c3ccccc3SCc3c2ccc(F)c3F)CN1C1C2CC1C2 (stereo partly drawn) [Compound I-65]	> 1000	9.43	
O=C1c2c(O)c(=O)ccn2N([C@H]2c3ccc(F)cc3CSc3ccccc32)[C@@H]2COCC3(CC3)N12 [II-13]	> 1000		pEC50 ([2]; MDCK): 9.42
